Columns and labels:
KM12 = assay: Growth inhibition of human KM12 cells assessed as cell growth at 10 uM incubated for 48 hrs by sulforhodamine B assay relative to control; assay type: functional; conditions: KM12, 48 h, read-out: Activity
NCI-H23 = assay: Growth inhibition of human NCI-H23 cells assessed as cell growth at 10 uM incubated for 48 hrs by sulforhodamine B assay relative to control; assay type: functional; conditions: NCI-H23, 48 h, read-out: Activity
SNB-19 [1] = assay: Growth inhibition of human SNB19 cells assessed as cell growth at 1 uM incubated for 48 hrs by sulforhodamine B assay relative to control; assay type: functional; conditions: SNB-19, 48 h, read-out: Activity
SW-620 = assay: Growth inhibition of human SW620 cells assessed as cell growth at 10 uM incubated for 48 hrs by sulforhodamine B assay relative to control; assay type: functional; conditions: SW-620, 48 h, read-out: Activity
DU-145 = assay: Growth inhibition of human DU145 cells assessed as cell growth at 100 uM incubated for 48 hrs by sulforhodamine B assay relative to control; assay type: functional; conditions: DU-145, 48 h, read-out: Activity
ACHN = assay: Growth inhibition of human ACHN cells assessed as cell growth at 10 uM incubated for 48 hrs by sulforhodamine B assay relative to control; assay type: functional; conditions: read-out: Activity
SF-268 = assay: Growth inhibition of human SF268 cells assessed as cell growth at 10 uM incubated for 48 hrs by sulforhodamine B assay relative to control; assay type: functional; conditions: SF-268, 48 h, read-out: Activity
NCI/ADR-RES = assay: Growth inhibition of human NCI/ADR-RES cells assessed as cell growth at 10 uM incubated for 48 hrs by sulforhodamine B assay relative to control; assay type: functional; conditions: read-out: Activity
LOX IMVI = assay: Growth inhibition of human LOXIMVI cells incubated for 48 hrs by sulforhodamine B assay; assay type: functional
A498 = assay: Growth inhibition of human A498 cells assessed as cell growth at 10 uM incubated for 48 hrs by sulforhodamine B assay relative to control; assay type: functional; conditions: A498, 48 h, read-out: Activity
SNB-19 [2] = assay: Growth inhibition of human SNB19 cells assessed as cell growth at 10 uM incubated for 48 hrs by sulforhodamine B assay relative to control; assay type: functional; conditions: SNB-19, 48 h, read-out: Activity
MDA-MB-435 = assay: Growth inhibition of human MDA-MB-435 cells assessed as cell growth at 0.1 uM incubated for 48 hrs by sulforhodamine B assay relative to control; assay type: functional; conditions: MDA-MB-435, 48 h, read-out: Activity
A549 = assay: Growth inhibition of human A549/ATCC cells assessed as cell growth at 10 uM incubated for 48 hrs by sulforhodamine B assay relative to control; assay type: functional; conditions: A549, 48 h, read-out: Activity
COLO 205 = assay: Growth inhibition of human COLO205 cells assessed as cell growth at 10 uM incubated for 48 hrs by sulforhodamine B assay relative to control; assay type: functional; conditions: COLO 205, 48 h, read-out: Activity
Hs-578T [3] = assay: Growth inhibition of human Hs578T cells assessed as cell growth at 100 uM incubated for 48 hrs by sulforhodamine B assay relative to control; assay type: functional; conditions: read-out: Activity
Malme-3M = assay: Growth inhibition of human MALME-3M cells assessed as cell growth at 10 uM incubated for 48 hrs by sulforhodamine B assay relative to control; assay type: functional; conditions: read-out: Activity
PC-3 = assay: Growth inhibition of human PC3 cells assessed as cell growth at 10 uM incubated for 48 hrs by sulforhodamine B assay relative to control; assay type: functional; conditions: PC-3, 48 h, read-out: Activity
Hs-578T [4] = assay: Growth inhibition of human Hs578T cells assessed as cell growth at 10 uM incubated for 48 hrs by sulforhodamine B assay relative to control; assay type: functional; conditions: read-out: Activity
SK-MEL-28 = assay: Growth inhibition of human SK-MEL-28 cells assessed as cell growth at 10 uM incubated for 48 hrs by sulforhodamine B assay relative to control; assay type: functional; conditions: SK-MEL-28, 48 h, read-out: Activity
786-0 = assay: Growth inhibition of human 786-0 cells assessed as cell growth at 10 uM incubated for 48 hrs by sulforhodamine B assay relative to control; assay type: functional; conditions: 786-0, 48 h, read-out: Activity
RPMI-8226 = assay: Growth inhibition of human RPMI8226 cells incubated for 48 hrs by sulforhodamine B assay; assay type: functional, cell-based; conditions: RPMI-8226, 48 h
U-251 = assay: Growth inhibition of human U251 cells assessed as cell growth at 0.1 uM incubated for 48 hrs by sulforhodamine B assay relative to control; assay type: functional; conditions: U-251, 48 h, read-out: Activity
OVCAR-3 = assay: Growth inhibition of human OVCAR3 cells assessed as cell growth at 10 uM incubated for 48 hrs by sulforhodamine B assay relative to control; assay type: functional; conditions: OVCAR-3, 48 h, read-out: Activity
M14 = assay: Growth inhibition of human M14 cells assessed as cell growth at 10 uM incubated for 48 hrs by sulforhodamine B assay relative to control; assay type: functional; conditions: M14, 48 h, read-out: Activity
BT-549 = assay: Growth inhibition of human BT549 cells assessed as cell growth at 10 uM incubated for 48 hrs by sulforhodamine B assay relative to control; assay type: functional; conditions: BT-549, 48 h, read-out: Activity
RXF 393 = assay: Growth inhibition of human RXF393 cells assessed as cell growth at 10 uM incubated for 48 hrs by sulforhodamine B assay relative to control; assay type: functional; conditions: RXF 393, 48 h, read-out: Activity
HL-60(TB) = assay: Growth inhibition of human HL-60(TB) cells assessed as cell growth at 10 uM incubated for 48 hrs by sulforhodamine B assay relative to control; assay type: functional; conditions: HL-60, 48 h, read-out: Activity
SF-539 [5] = assay: Growth inhibition of human SF539 cells assessed as cell growth at 1 uM incubated for 48 hrs by sulforhodamine B assay relative to control; assay type: functional; conditions: SF-539, 48 h, read-out: Activity
MCF7 = assay: Growth inhibition of human MCF7 cells assessed as cell growth at 10 uM incubated for 48 hrs by sulforhodamine B assay relative to control; assay type: functional; conditions: MCF7, 48 h, read-out: Activity
HOP-62 = assay: Growth inhibition of human HOP62 cells incubated for 48 hrs by sulforhodamine B assay; assay type: functional, cell-based; conditions: HOP-62, 48 h
SF-539 [6] = assay: Growth inhibition of human SF539 cells assessed as cell growth at 0.01 uM incubated for 48 hrs by sulforhodamine B assay relative to control; assay type: functional; conditions: SF-539, 48 h, read-out: Activity
SN12C = assay: Growth inhibition of human SN12C cells assessed as cell growth at 10 uM incubated for 48 hrs by sulforhodamine B assay relative to control; assay type: functional; conditions: read-out: Activity
[7] = read-out: LC50 (the source's name)
[8] = read-out: pLC50 (the source's name) (converted)

COc1cc(Cl)cc(-c2nn(-c3cccc(NC(=O)c4cccc(C(F)(F)F)c4)c3)cc2-c2ccncc2)c1
growth at 10 µM (KM12): 43.7% | growth at 10 µM (NCI-H23): 55.6% | growth at 1 µM (SNB-19 [1]): 100% | growth at 10 µM (SW-620): 77% | growth at 100 µM (DU-145): 50% | growth at 10 µM (ACHN): 48.1% | growth at 10 µM (SF-268): 77.3% | growth at 10 µM (NCI/ADR-RES): 46.6% | GI50 (LOX IMVI; read-out: GI50): 1.57 µM | CC50 (LOX IMVI; [7]): > 100 µM | TGI (LOX IMVI; read-out: TGI): > 100 µM | GI50 (LOX IMVI; read-out: pGI50 (converted)): 15.8 µM | CC50 (LOX IMVI; [8]): > 100 µM | TGI (LOX IMVI; read-out: pTGI (converted)): > 100 µM | growth at 10 µM (A498): 21.2% | growth at 10 µM (SNB-19 [2]): 82.2% | growth at 0.1 µM (MDA-MB-435): 95% | growth at 10 µM (A549): 39.1% | growth at 10 µM (COLO 205): 68.5% | growth at 100 µM (Hs-578T [3]): 53% | growth at 10 µM (Malme-3M): 92.4% | growth at 10 µM (PC-3): 23.1% | growth at 10 µM (Hs-578T [4]): 62.2% | growth at 10 µM (SK-MEL-28): 70.3% | growth at 10 µM (786-0): 66.6% | IC50 (RPMI-8226): 3.13 µM | GI50 (RPMI-8226; read-out: GI50): 3.12 µM | CC50 (RPMI-8226; [7]): > 100 µM | TGI (RPMI-8226; read-out: TGI): > 100 µM | GI50 (RPMI-8226; read-out: pGI50 (converted)): 3.16 µM | CC50 (RPMI-8226; [8]): > 100 µM | TGI (RPMI-8226; read-out: pTGI (converted)): > 100 µM | growth at 0.1 µM (U-251): 91% | growth at 10 µM (OVCAR-3): 52.3% | growth at 10 µM (M14): 56.3% | growth at 10 µM (BT-549): 89.5% | growth at 10 µM (RXF 393): 40.5% | growth at 10 µM (HL-60(TB)): 67.3% | growth at 1 µM (SF-539 [5]): 52% | growth at 10 µM (MCF7): 39.4% | GI50 (HOP-62; read-out: GI50): > 100 µM | CC50 (HOP-62; [7]): > 100 µM | TGI (HOP-62; read-out: TGI): > 100 µM | GI50 (HOP-62; read-out: pGI50 (converted)): > 100 µM | CC50 (HOP-62; [8]): > 100 µM | TGI (HOP-62; read-out: pTGI (converted)): > 100 µM | growth at 0.01 µM (SF-539 [6]): 93% | growth at 10 µM (SN12C): 65.8%

O=C(Nc1cccc(-n2cc(-c3ccncc3)c(-c3cc(O)cc(Cl)c3)n2)c1)c1ccc(N2CCOCC2)c(C(F)(F)F)c1
growth at 10 µM (KM12): 9.89% | growth at 10 µM (NCI-H23): 15.4% | growth at 1 µM (SNB-19 [1]): 90% | growth at 10 µM (SW-620): -26.2% | growth at 100 µM (DU-145): 13% | growth at 10 µM (ACHN): 20.7% | growth at 10 µM (SF-268): 52.7% | growth at 10 µM (NCI/ADR-RES): 35% | GI50 (LOX IMVI; read-out: GI50): 1.03 µM | CC50 (LOX IMVI; [7]): > 100 µM | TGI (LOX IMVI; read-out: TGI): 48.1 µM | GI50 (LOX IMVI; read-out: pGI50 (converted)): 1.02 µM | CC50 (LOX IMVI; [8]): > 100 µM | TGI (LOX IMVI; read-out: pTGI (converted)): 4.57 µM | growth at 10 µM (A498): 72.7% | growth at 10 µM (SNB-19 [2]): 12.1% | growth at 0.1 µM (MDA-MB-435): 69% | growth at 10 µM (A549): 9.62% | growth at 10 µM (COLO 205): 80.5% | growth at 100 µM (Hs-578T [3]): 30% | growth at 10 µM (Malme-3M): -26.9% | growth at 10 µM (PC-3): 19.1% | growth at 10 µM (Hs-578T [4]): 17.9% | growth at 10 µM (SK-MEL-28): -52.4% | growth at 10 µM (786-0): 36.6% | IC50 (RPMI-8226): 0.4 µM | GI50 (RPMI-8226; read-out: GI50): 0.396 µM | CC50 (RPMI-8226; [7]): > 100 µM | TGI (RPMI-8226; read-out: TGI): 23.1 µM | GI50 (RPMI-8226; read-out: pGI50 (converted)): 0.398 µM | CC50 (RPMI-8226; [8]): > 100 µM | TGI (RPMI-8226; read-out: pTGI (converted)): 2.29 µM | growth at 0.1 µM (U-251): 96% | growth at 10 µM (OVCAR-3): 36.4% | growth at 10 µM (M14): -20.7% | growth at 10 µM (BT-549): 52.2% | growth at 10 µM (RXF 393): -45.6% | growth at 10 µM (HL-60(TB)): -46.4% | growth at 1 µM (SF-539 [5]): 58% | growth at 10 µM (MCF7): 29.7% | GI50 (HOP-62; read-out: GI50): 3.59 µM | CC50 (HOP-62; [7]): > 100 µM | TGI (HOP-62; read-out: TGI): 58.2 µM | GI50 (HOP-62; read-out: pGI50 (converted)): 3.55 µM | CC50 (HOP-62; [8]): > 100 µM | TGI (HOP-62; read-out: pTGI (converted)): 58.9 µM | growth at 0.01 µM (SF-539 [6]): 94% | growth at 10 µM (SN12C): 46.4%

From ChEMBL document CHEMBL4308841, “Synthesis, in vitro antiproliferative activity, and kinase inhibitory effects of pyrazole-containing diarylureas and diarylamides” (Eur J Med Chem, 2018)
